Source: patent US20130273649A1, “Culture medium for pluripotent stem cells” (UNIVERSITY OF SOUTHERN CALIFORNIA, priority 2012, published 2013)

Columns and labels:
[1] = tested on: Axin1; assay: Western blot of Axin1 in human ESCs; type: cell-based; details: human ESCs treated 24 h
Experimental: (A) TOPFlash™ assay in H9 human ESCs subjected to the indicated treatments for 24 h. Data represent mean±s.d. of three biological replicates. (B) Representative phase contrast and alkaline phosphatase (AP) staining images of H9 human ESCs cultured in the indicated conditions for 3 passages. (C) Phase contrast images of H9 human ESCs cultured in CHIR/XAV or CHIR/IWR-1 for 11 passages. (D) Colony forming efficiency assay of H9 human ESCs cultured in FGF2 or CHIR/IWR-1 conditions. Data represent mean±s.d. of three biological replicates. Right panel: a representative image showing AP staining of colonies formed from H9 human ESCs cultured in either FGF2 or CHIR/IWR-1 condition. (E) Human ESCs cultured in CHIR/IWR-1 for 11 passages were immunostained with the indicated antibodies. (F) Embryoid bodies (EBs) were generated from H9 human ESCs cultured in CHIR/IWR-1 for 11 passages. The outgrowths of EBs were immunostained with the indicated antibodies. (G) H&E staining of teratomas generated from H9 ESCs cultured in CHIR/IWR-1 for 20 passages. (H) Western blot analysis of Axin1 and Axin2 expression in HES3 human ESCs treated with the indicated cytokines/inhibitors for 24 h. (I) Immunofluorescence images of H9 human ESCs (passage 5 in CHIR) overexpressing Flag-tagged Axin2. […]

[2] = tested on: H9 human ESCs; assay: Human ESC self-renewal culture; type: cell-based
Excerpt: As human ESCs share defining features with mouse EpiSCs (Hanna et al., 2010; Rossant, 2008; Tesar et al., 2007), we tested whether modulating β-catenin function can also promote human ESC self-renewal. […] Next, we examined the effect of CHIR/XAV and CHIR/IWR-1 on human ESC self-renewal. […] Similar results were obtained in H1 and HES3 human ESCs (data not shown). […] Moreover, human ESCs maintained in CHIR/IWR-1 express pluripotency markers Oct4, Nanog and Sox2 (FIG. 7E), and retain the ability to differentiate into cells of all three germ layers, both in vitro and in vivo (FIGS. 7F and 7G).
The basal medium for mouse EpiSC culture is the conventional mouse ESC medium, which consists of GMEM (Sigma) supplemented with 10% fetal bovine serum (FBS) (Hyclone), 2 mM L-glutamine (Invitrogen), 1 mM sodium pyruvate (Invitrogen), 1% nonessential amino acids (Invitrogen), and 0.1 mM (3-mercaptoethanol. Mouse EpiSCs were derived and maintained in the basal medium supplemented with FGF2/activin, CHIR/XAV, or CHIR/IWR-1. The basal medium for rat EpiSC culture is N2B27 (Tong et al., 2011), which was prepared by mixing 500 ml of DMEM/F12 (Invitrogen) with 500 ml of Neurobasal™ medium (Invitrogen), and adding 5 ml of N2 (Invitrogen), 10 ml of B27 (Invitrogen), 5 ml of Glutamax™ (Invitrogen), and 1 ml of 0.1 M β-mercaptoethanol (Sigma). The basal medium for human ESC culture consists of Knockout™ DMEM/F12 supplemented with 20% KSR (Invitrogen), 1% nonessential amino acids, 2 mM L-glutamine, and 0.1 mM (3-mercaptoethanol. Human ESCs were cultured in the basal medium supplemented with FGF2, CHIR/XAV, or CHIR/IWR-1.
H1, H9, HES-2 and HES-3 human ESC lines were kindly provided by the University of Southern California Stem Cell Core Facility. Human ESCs were routinely maintained on γ-irradiated MEF feeders in Knockout™ DMEM medium (Invitrogen) supplemented with 20% Knockout™ serum replacement (KSR; Invitrogen), 10 ng/ml FGF2 (PeproTech), 1% nonessential amino acids, 2 mM L-glutamine, and 0.1 mM β-mercaptoethanol. […]

Structure (SMILES): Cc1c[nH]c(-c2cnc(NCCNc3ccc(C#N)cn3)nc2-c2ccc(Cl)cc2Cl)n1 [CHIR99021, 6-((2-((4-(2,4-Dichlorophenyl)-5-(4-methyl-1H-imidazol-2-yl)pyrimidin-2-yl)amino)ethyl)amino)nicotinonitrile]
- amount of Axin1 protein [1]: not Axin1
- self-renewal of Axin2-overexpressing human ESCs ([2]; Axin2-hESC (H9), CHIR alone): could support stable and long-term self-renewal of Axin2-hESCs
- human ESC self-renewal / differentiation ([2]; H9 human ESCs, CHIR 3 μM, IWR-1 2.5 μM, XAV939 2 μM): induced differentiation of H9 human ESCs
